For three molecules, MIC results are on record in publication PMC10648927, “Examining the activity of cefepime-taniborbactam against Burkholderia cepacia complex and Burkholderia gladioli isolated from cystic fibrosis patients in the United States” (Antimicrobial Agents and Chemotherapy, 2023).

Holding throughout (set-up): agar dilution MIC, growth inhibition of clinical Burkholderia isolates
For one test, the system named is T1, B. arboris AU24192.
T1 construct: AU24192
Description: organism not typed. The text has this:
(§1) We evaluated the activity of cefepime-taniborbactam against a panel of 140 Bcc clinical isolates (i.e., species ambifaria, arboris, cenocepacia, cepacia, contaminans, diffusa, dolosa, multivorans, pseudomultivorans, pyrrocinia, seminalis, stabilis, ubonensis, and vietnamiensis) and 10 B. gladioli from the Burkholderia cepacia Research Laboratory and Repository (University of Michigan) ([22], [25], [31]) (Supplementary Material, Tables S1 and S2). K. pneumoniae ATCC 700603 carrying bla SHV-18 and K. pneumoniae ATCC BAA-1705 harboring bla KPC strains were used as controls for β-lactam and β-lactamase inhibitor integrity; all controls tested within the anticipated quality control ranges (Table S3). Minimum inhibitory concentration (MIC) results were interpreted using Clinical Laboratory Standards Institute (CLSI) breakpoints, where available ([32]). […] An alternative cefepime-taniborbactam provisional susceptible breakpoint of ≤16 µg/mL is supported by in vivo efficacy data from neutropenic murine infection models (thigh, complicated urinary tract, and lung) ([15] [–] [17]) and data from safety and pharmacokinetics studies in human volunteers ([33], [34]). The cefepime-taniborbactam antimicrobial activity was compared to cefepime, meropenem, meropenem-vaborbactam, and levofloxacin, to data published for first-line agents (e.g., ceftazidime and trimethoprim-sulfamethoxazole) and to those recommended by the CLSI for clinical testing (e.g., minocycline) against the Bcc and B. gladioli panel ([22], [32]). Of note, the MICs of all these agents were determined by the agar dilution method, which alongside broth microdilution, are recommended by the CLSI to assess the antimicrobial susceptibility of Bcc isolates ([32]).

Another test concerns T2, B. cenocepacia AU12571.
T2 construct: AU12571
The test is described as follows: microbe, parasite or virus in culture. As to conditions: Burkholderia cenocepacia, AU12571.
Source text: as §1

A further test deals with T3, B. cepacia AU13163.
T3 construct: AU13163
Description: microbe, parasite or virus in culture. As to conditions: Burkholderia cepacia, AU13163.
Source text: as §1

Another test concerns T4, B. cenocepacia AU0756.
T4 construct: AU0756
The test is described as follows: microbe, parasite or virus in culture. Particulars: Burkholderia cenocepacia, AU0756.
Source text: as §1

The subject of another test is T5, B. multivorans AU25057.
T5 construct: AU25057
The test is described as follows: microbe, parasite or virus in culture. As to conditions: Burkholderia multivorans, AU25057.
Source text: as §1

A further test has as its system T6, B. multivorans AU30050.
T6 construct: AU30050
The test is described as follows: microbe, parasite or virus in culture. As to conditions: Burkholderia multivorans, AU30050.
Source text: as §1

The subject of another test is T7, B. multivorans AU18096.
T7 construct: AU18096
The test is described as follows: microbe, parasite or virus in culture. Particulars: Burkholderia multivorans, AU18096.
Source text: as §1

The next test deals with T8, B. multivorans AU21596.
T8 construct: AU21596
The test is described as follows: microbe, parasite or virus in culture. Particulars: Burkholderia multivorans, AU21596.
Source text: as §1

The subject of a further test is T9, B. multivorans AU14364.
T9 construct: AU14364
Description: microbe, parasite or virus in culture. Particulars: Burkholderia multivorans, AU14364.
Source text: as §1

The next test concerns T10, B. gladioli AU29223.
T10 construct: AU29223
The test is described as follows: organism not typed.
Source text: as §1

The test system of the next test is T11, B. cenocepacia AU13262.
T11 construct: AU13262
Description: microbe, parasite or virus in culture. As to conditions: Burkholderia cenocepacia, AU13262.
Source text: as §1

Another test has as its system T12, B. cepacia AU13354.
T12 construct: AU13354
The test is described as follows: microbe, parasite or virus in culture. As to conditions: Burkholderia cepacia, AU13354.
Source text: as §1

The subject of the next test is T13, B. cepacia AU17630.
T13 construct: AU17630
The test is described as follows: microbe, parasite or virus in culture. Particulars: Burkholderia cepacia, AU17630.
Source text: as §1

Test [1] concerns T14, Burkholderia cepacia complex Bcc Indeterminate AU19821.
T14 construct: AU19821
The test is described as follows: microbe, parasite or virus in culture. As to conditions: Burkholderia cepacia.
Source text: as §1

A further test has as its system T15, B. multivorans AU19564.
T15 construct: AU19564
Description: microbe, parasite or virus in culture. Particulars: Burkholderia multivorans, AU19564.
Source text: as §1

The subject of a further test is T16, B. gladioli AU21101.
T16 construct: AU21101
The test is described as follows: organism not typed.
Source text: as §1

The test system of test [2] is T17, Burkholderia cepacia complex Bcc Indeterminate AU18117.
T17 construct: AU18117
The test is described as follows: microbe, parasite or virus in culture. As to conditions: Burkholderia cepacia.
Source text: as §1

In a further test the test system is T18, B. multivorans AU29198.
T18 construct: AU29198
The test is described as follows: microbe, parasite or virus in culture. As to conditions: Burkholderia multivorans, AU29198.
Source text: as §1

Another test relates to T19, B. gladioli AU30473.
T19 construct: AU30473
Description: organism not typed.
Source text: as §1

Another test concerns T20, B. multivorans AU15814.
T20 construct: AU15814
The test is described as follows: microbe, parasite or virus in culture. As to conditions: Burkholderia multivorans, AU15814.
Source text: as §1

The test system of the next test is T21, B. cenocepacia AU28111.
T21 construct: AU28111
Description: microbe, parasite or virus in culture. Particulars: Burkholderia cenocepacia, AU28111.
Source text: as §1

Another test has as its system T22, B. gladioli AU16341.
T22 construct: AU16341
Description: organism not typed.
Source text: as §1

A further test concerns T23, B. cenocepacia AU0583.
T23 construct: AU0583
The test is described as follows: microbe, parasite or virus in culture. Particulars: Burkholderia cenocepacia, AU0583.
Source text: as §1

Values after ≈ are worked out from the molar mass of the structure shown. Some results are limits rather than exact numbers.

Turning to `CO/N=C(\C(=O)N[C@@H]1C(=O)N2C(C(=O)[O-])=C(C[N+]3(C)CCCC3)CS[C@H]12)c1csc(N)n1` [cefepime], the MIC was 32 µg/mL (≈ 66.6 µM) in the test with B. arboris AU24192; 16 µg/mL (≈ 33.3 µM) in the test with B. cenocepacia AU12571; 16 µg/mL (≈ 33.3 µM) against B. cepacia AU13163; above 32 µg/mL in the test with B. cenocepacia AU0756; 8 µg/mL (≈ 16.6 µM) in the test with B. multivorans AU25057; 2 µg/mL (≈ 4.16 µM) in the test with B. multivorans AU30050. The MIC against B. multivorans AU18096 is 2 µg/mL (≈ 4.16 µM); in the test with B. multivorans AU21596, above 32 µg/mL; in the test on B. multivorans AU14364, above 32 µg/mL; against B. gladioli AU29223 it was 16 µg/mL (≈ 33.3 µM); in the test on B. cenocepacia AU13262, above 32 µg/mL; in the test on B. cepacia AU13354, above 32 µg/mL. The MIC is above 32 µg/mL against B. cepacia AU17630; above 32 µg/mL in [1]; 16 µg/mL (≈ 33.3 µM) against B. multivorans AU19564; 16 µg/mL (≈ 33.3 µM) against B. gladioli AU21101; above 32 µg/mL in test [2]; above 32 µg/mL in the test on B. multivorans AU29198. In addition, the MIC against B. gladioli AU30473 is 32 µg/mL (≈ 66.6 µM); in the test on B. multivorans AU15814, 32 µg/mL (≈ 66.6 µM); with B. cenocepacia AU28111, 32 µg/mL (≈ 66.6 µM); with B. gladioli AU16341 it was above 32 µg/mL; in the test on B. cenocepacia AU0583 it was 32 µg/mL (≈ 66.6 µM).

For the molecule `C[C@H]1COc2c(N3CCN(C)CC3)c(F)cc3c(=O)c(C(=O)O)cn1c23` [levofloxacin], the MIC is 4 µg/mL (≈ 11.1 µM) in the test with B. arboris AU24192; 8 µg/mL (≈ 22.1 µM) in the test with B. cenocepacia AU12571; 2 µg/mL (≈ 5.53 µM) against B. cepacia AU13163; above 32 µg/mL against B. cenocepacia AU0756; 8 µg/mL (≈ 22.1 µM) against B. multivorans AU25057; 1 µg/mL (≈ 2.77 µM) in the test on B. multivorans AU30050. In addition, the MIC against B. multivorans AU18096 is 4 µg/mL (≈ 11.1 µM); with B. multivorans AU21596, above 32 µg/mL; against B. multivorans AU14364, 32 µg/mL (≈ 88.6 µM); against B. gladioli AU29223, 0.5 µg/mL (≈ 1.38 µM); in the test on B. cenocepacia AU13262, 4 µg/mL (≈ 11.1 µM); with B. cepacia AU13354 it was 8 µg/mL (≈ 22.1 µM). The MIC was 4 µg/mL (≈ 11.1 µM) against B. cepacia AU17630; 32 µg/mL (≈ 88.6 µM) in [1]; 8 µg/mL (≈ 22.1 µM) against B. multivorans AU19564; 1 µg/mL (≈ 2.77 µM) in the test with B. gladioli AU21101; above 32 µg/mL in [2]; 8 µg/mL (≈ 22.1 µM) with B. multivorans AU29198. Further, the MIC is 2 µg/mL (≈ 5.53 µM) against B. gladioli AU30473; 16 µg/mL (≈ 44.3 µM) against B. multivorans AU15814; 4 µg/mL (≈ 11.1 µM) with B. cenocepacia AU28111; 4 µg/mL (≈ 11.1 µM) against B. gladioli AU16341; above 32 µg/mL in the test on B. cenocepacia AU0583.

Take `C[C@@H](O)[C@H]1C(=O)N2C(C(=O)O)=C(S[C@@H]3CN[C@H](C(=O)N(C)C)C3)[C@H](C)[C@H]12` [meropenem]: the MIC is 8 µg/mL (≈ 20.9 µM) against B. arboris AU24192; 2 µg/mL (≈ 5.22 µM) in the test with B. cenocepacia AU12571; 4 µg/mL (≈ 10.4 µM) in the test with B. cepacia AU13163; 32 µg/mL (≈ 83.4 µM) in the test with B. cenocepacia AU0756; 4 µg/mL (≈ 10.4 µM) in the test on B. multivorans AU25057; 2 µg/mL (≈ 5.22 µM) against B. multivorans AU30050. For the same molecule, the MIC amounted to 1 µg/mL (≈ 2.61 µM) in the test on B. multivorans AU18096; 32 µg/mL (≈ 83.4 µM) against B. multivorans AU21596; 4 µg/mL (≈ 10.4 µM) against B. multivorans AU14364; 1 µg/mL (≈ 2.61 µM) with B. gladioli AU29223; 4 µg/mL (≈ 10.4 µM) with B. cenocepacia AU13262; 8 µg/mL (≈ 20.9 µM) in the test on B. cepacia AU13354. In addition, the MIC is 4 µg/mL (≈ 10.4 µM) against B. cepacia AU17630; 16 µg/mL (≈ 41.7 µM) in [1]; 4 µg/mL (≈ 10.4 µM) in the test with B. multivorans AU19564; 1 µg/mL (≈ 2.61 µM) against B. gladioli AU21101; 8 µg/mL (≈ 20.9 µM) in test [2]; 16 µg/mL (≈ 41.7 µM) with B. multivorans AU29198. In addition, the MIC was 4 µg/mL (≈ 10.4 µM) against B. gladioli AU30473; above 32 µg/mL in the test with B. multivorans AU15814; 4 µg/mL (≈ 10.4 µM) in the test on B. cenocepacia AU28111; 8 µg/mL (≈ 20.9 µM) in the test on B. gladioli AU16341; 4 µg/mL (≈ 10.4 µM) in the test on B. cenocepacia AU0583.
